# Measured values: ChEMBL document CHEMBL2062468, “Identification of first proadrenomedullin N-terminal 20 peptide (PAMP) modulator by means of virtual screening and NMR interaction experiments” (Eur J Med Chem, 2012)
# Calls of active or inactive are those of the source. No cut-off for these calls is given here.
# Target: T1, Pro-adrenomedullin (Homo sapiens) (UniProt P35318)
# T1 sequence (whole entry): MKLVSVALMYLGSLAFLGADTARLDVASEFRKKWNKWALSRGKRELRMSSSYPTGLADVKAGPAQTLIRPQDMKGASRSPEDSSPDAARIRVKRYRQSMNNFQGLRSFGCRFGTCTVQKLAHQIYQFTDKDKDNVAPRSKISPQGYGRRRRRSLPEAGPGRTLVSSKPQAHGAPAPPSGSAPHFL
# Assay: Binding affinity to human synthetic proadrenomedullin N-terminal 20 peptide assessed as reduction in absorbance at 1 uM after 1 hr by monoclonal antibody method
# Parameters: scale not given: the % may be the effect or the level left
row,SMILES,Activity
1,S=C(Nc1ccc2c(c1)Cc1ccccc1-2)Nc1ccc2c(c1)Cc1ccccc1-2,80.8%
2,Clc1ccc2c(N3CCC(CCC4CCN(c5ncnc6cc(Cl)ccc56)CC4)CC3)ncnc2c1,88%
3,O=C(O)CNC(=O)C1NC(C(F)(F)F)(C(F)(F)F)OC1(C(F)(F)F)C(F)(F)F (stereo unspecified),92.1%
4,C(CCc1nnc2c(n1)CCCC2)Cc1nnc2c(n1)CCCC2,96.5%
5,O=C(O)c1c(-c2nccc3ccccc23)[nH]c(-c2ccccc2)c1S(=O)(=O)O,96.7%
6,S=C1NCN2CCN(CC2)CNC(=S)C(=S)NCN2CCN(CC2)CNC1=S,88%
7,O=c1[nH]c2ccccc2n1CCCN1CCC(n2c(=O)[nH]c3cc(Cl)ccc32)CC1,80.1%
8,Nc1nc(-c2ccc3ccccc3c2)cc(-c2cc(-c3ccc4ccccc4c3)nc(N)n2)n1,104%
9,O=C1C(Cl)=C(Sc2nnc3c4ccccc4c4ccccc4c3n2)C(=O)c2ccccc21,88.4%
10,FC(F)(F)c1nc2ccc(SSc3ccc4nc(C(F)(F)F)[nH]c4c3)cc2[nH]1,109%
11,CC1c2ccccc2Cn2cc3c(c21)C(=O)c1cccc(OP(=O)(O)OCc2ccccc2)c1C3=O (stereo unspecified),107%
12,O=C1c2ccccc2C(=O)c2c(NC3CCCCC3)ccc(Nc3ccc(S(=O)(=O)O)cc3)c21,101%
13,C[C@]12CC[C@@H]3c4ccc(O)cc4CC[C@H]3[C@@H]1CC[C@@H]2OC(=O)CCC1CCCC1,91.2%
14,Cn1c(=O)c2c(ncn2CN2CCN(Cn3cnc4c3c(=O)n(C)c(=O)n4C)CC2)n(C)c1=O,76.4%
15,Nc1nc(-c2ccccc2)c(-c2ccccc2)c(-c2nc(N)nc(-c3ccccc3)c2-c2ccccc2)n1,109%
16,O=C1C2C3C=CC(C2C(=O)N1CN1CCSCC1)C1C2C(=O)N(CN4CCSCC4)C(=O)C2C31 (stereo unspecified),92.5%

row,SMILES,Activity
1,Nc1nc(SCc2ccccc2)c2ncn(Cc3ccccc3)c2n1,91.4%
2,CN1C(=O)C2N=C(C3CC(=O)CC(c4nc5c(=O)n(C)c(=O)n(C)c5[nH]4)N3)NC2N(C)C1=O (stereo unspecified),85.1%
3,OC[C@H]1O[C@@H](n2cnc3c(SCc4ccccc4)ncnc32)[C@H](O)[C@@H]1O,109%
4,Nc1ncnc2nc(-c3ccc(C[PH](c4ccccc4)(c4ccccc4)c4ccccc4)cc3)[nH]c12,76%
5,Cc1ccc(-c2nc(-c3nccc4ccccc34)oc2-c2ccccc2)cc1,72.1%
6,CC(C)CCC[C@@H](C)[C@H]1CC[C@H]2[C@@H]3CCC4CC(N)CC[C@]4(C)[C@H]3CC[C@]12C (stereo partly specified),106%
7,CC1(C)CC(Nc2ccc(Nc3ccccc3)cc2)CC(C)(C)N1,96.2%
8,Cn1cnc([N+](=O)[O-])c1Sc1nc(N)nc2c1ncn2[C@H]1C[C@H](O)[C@@H](CO)O1,86.3%
9,c1ccc([PH](CC[PH](c2ccccc2)(c2ccccc2)c2ccccc2)(c2ccccc2)c2ccccc2)cc1,84.6%
10,Cc1ccc2ccccc2c1CSc1nc(N)nc2c1ncn2CC(C)C,85.5%
11,c1ccc2c(CN3CCN(Cc4c[nH]c5ccccc45)CC3)c[nH]c2c1,89.7%
12,O=S(=O)(O)c1ccc2cc(/N=N/c3cc(S(=O)(=O)O)c4cccnc4c3O)ccc2c1,86.4%
13,c1cc(NNc2cccc(-c3nnn[nH]3)c2)cc(-c2nnn[nH]2)c1,95.3%
14,O=S(=O)(O)c1ccc(-c2nnc(-c3ccccn3)nc2-c2ccc(S(=O)(=O)O)o2)o1,81.9%
15,C[C@]12CC[C@@H]3c4ccc(O)cc4CC[C@H]3[C@@H]1CC[C@@H]2OC(=O)CCc1ccccc1,98.4%
16,O=[N+]([O-])c1ccc2c(c1)N=C1OC(c3c[nH]c4ccc(COc5ccccc5)cc34)C(O)=C1N2 (stereo unspecified),92.7%

# Target: T1, Pro-adrenomedullin (Homo sapiens)
# Assay: Binding affinity to human proadrenomedullin N-terminal 20 peptide at 500 uM by NMR spectroscopy
row,SMILES,Activity
1,CN1C(=O)C2N=C(C3CC(=O)CC(c4nc5c(=O)n(C)c(=O)n(C)c5[nH]4)N3)NC2N(C)C1=O (stereo unspecified),Active
2,O=S(=O)(O)c1ccc2cc(/N=N/c3cc(S(=O)(=O)O)c4cccnc4c3O)ccc2c1,Active

# Target: T1, Pro-adrenomedullin (Homo sapiens)
# Assay: Binding affinity to human proadrenomedullin N-terminal 20 peptide assessed as fragmentation of PAMP protein at 500 uM by MS analysis
row,SMILES,Activity
1,O=S(=O)(O)c1ccc2cc(/N=N/c3cc(S(=O)(=O)O)c4cccnc4c3O)ccc2c1,Active

# Tested on: Mus musculus
# Assay: Induction of angiogenesis in mouse athymic nude mouse implanted with matrigel containing compound at 1 uM measured after 11 days by direct in vivo angiogenesis assay
# Assay type: functional, organism-based
row,SMILES,Activity
1,CN1C(=O)C2N=C(C3CC(=O)CC(c4nc5c(=O)n(C)c(=O)n(C)c5[nH]4)N3)NC2N(C)C1=O (stereo unspecified),Active
